Results as given in patent US20180036289A1 (Gilead Sciences, Inc., priority 2016, published 2018).

Key:
Experiment in all cases: Cell proliferation assay (ATPlite), drug with vs without cobicistat
Assay type in all cases: cell-based
A-204 = A-204 cell line; 120 hours incubation
Method: (§1) All cell lines were obtained from the American Type Culture Collection (ATCC) Manassas, Va. (US). Master and working cell banks (MCB and WCB) were prepared by subculturing in ATCC-recommended media and freezing protocols (www.atcc.org). Cell line stocks for the assays were prepared from the WCB. The MCB, WCBs and assay stocks were prepared within respectively 3, 6 and 9 passages of the ATCC vial.
(§2) Solid powders of reference compounds were weighed on a calibrated balance and dissolved in 100% DMSO. DMSO samples were stored at room temperature. At the day of the experiment, the compound stock was diluted in 3.16 fold steps in 100% DMSO to obtain a 9-point dilution series. This was further diluted 31.6 times in 20 mM sterile Hepes buffer pH 7.4. A volume of 5 μl was transferred to the cells to generate a test concentration range from 3.16×10^−5M to 3.16×10^−9 M in duplicate. The final DMSO concentration during incubation was […] in all wells.
(§3) An assay stock was thawed and diluted in its ATCC recommended medium and dispensed in a 384-well plate, depending on the cell line used, at a concentration of 200-3200 cells per well in 45 μl medium. For each used cell line the optimal cell density is used. The margins of the plate were filled with phosphate-buffered saline. Plated cells were incubated in a humidified atmosphere of 5% CO2 at 37° C. After 24 hours, 5 μl of compound dilution was added and plates were further incubated for another 120 hours. After 120 hours, 25 μl of ATPlite 1Step™ (PerkinElmer) solution was added to each well, and subsequently shaken for 2 minutes. After 10 minutes of incubation in the dark, the luminescence was recorded on an Envision multimode reader (PerkinElmer).
(§4) IC50s were calculated by non-linear regression using IDBS XLfit 5. The percentage growth after 120 h (%-growth) was calculated as follows: 100%×(luminescencet=120h/luminescenceuntreated,t=120h). This was fitted to the ^10log compound concentration (conc) by a 4-parameter logistics curve: %−growth=bottom+(top−bottom)/(1+10^(log IC50-conc)*hill)), where hill is the Hill-coefficient, and bottom and top the asymptotic minimum and maximum cell growth that the compound allows in that assay.

A-427 = A-427 cell line; 120 hours incubation
Method: as §1, §2, §3, §4

A-498 = A-498 cell line; 120 hours incubation
Method: as §1, §2, §3, §4

A-549 = A-549 cell line; 120 hours incubation
Method: as §1, §2, §3, §4

A-704 = A-704 cell line; 120 hours incubation
Method: as §1, §2, §3, §4

AN3 CA = AN3 CA cell line; 120 hours incubation
Method: as §1, §2, §3, §4

AU-565 = AU-565 cell line; 120 hours incubation
Method: as §1, §2, §3, §4

AsPC-1 = AsPC-1 cell line; 120 hours incubation
Method: as §1, §2, §3, §4

BT-549 = BT-549 cell line; 120 hours incubation
Method: as §1, §2, §3, §4

C-33 A = C-33 A cell line; 120 hours incubation
Method: as §1, §2, §3, §4

CAL 27 = CAL 27 cell line; 120 hours incubation
Method: as §1, §2, §3, §4

CCRF-CEM = CCRF-CEM cell line; 120 hours incubation
Method: as §1, §2, §3, §4

DLD-1 = DLD-1 cell line; 120 hours incubation
Method: as §1, §2, §3, §4

Hs 578T = Hs 578T cell line; 120 hours incubation
Method: as §1, §2, §3, §4

K-562 = K-562 cell line; 120 hours incubation
Method: as §1, §2, §3, §4

KU812 = KU812 cell line; 120 hours incubation
Method: as §1, §2, §3, §4

LNCaP FGC = LNCaP FGC cell line; 120 hours incubation
Method: as §1, §2, §3, §4

LoVo = LoVo cell line; 120 hours incubation
Method: as §1, §2, §3, §4

MIA PaCa-2 = MIA PaCa-2 cell line; 120 hours incubation
Method: as §1, §2, §3, §4

MeWo = MeWo cell line; 120 hours incubation
Method: as §1, §2, §3, §4

NCI-H82 = NCI-H82 cell line; 120 hours incubation
Method: as §1, §2, §3, §4

OVCAR-3 = OVCAR-3 cell line; 120 hours incubation
Method: as §1, §2, §3, §4

PA-1 = PA-1 cell line; 120 hours incubation
Method: as §1, §2, §3, §4

RPMI-7951 = RPMI-7951 cell line; 120 hours incubation
Method: as §1, §2, §3, §4

RT4 = RT4 cell line; 120 hours incubation
Method: as §1, §2, §3, §4

SHP-77 = SHP-77 cell line; 120 hours incubation
Method: as §1, §2, §3, §4

SK-N-FI = SK-N-FI cell line; 120 hours incubation
Method: as §1, §2, §3, §4

T98G = T98G cell line; 120 hours incubation
Method: as §1, §2, §3, §4

U-2 OS = U-2 OS cell line; 120 hours incubation
Method: as §1, §2, §3, §4

U-87 MG = U-87 MG cell line; 120 hours incubation
Method: as §1, §2, §3, §4

CC(=O)O[C@@]12CO[C@@H]1C[C@H](O)[C@@]1(C)C(=O)[C@H](O)C3=C(C)[C@@H](OC(=O)[C@H](O)[C@@H](NC(=O)OC(C)(C)C)c4ccccc4)C[C@@](O)([C@@H](OC(=O)c4ccccc4)[C@H]21)C3(C)C [docetaxel]
Fold change in IC50 (IC50 [Drug + Cobicistat]/IC50 [Drug]) (A-204): 5.7 fold | Fold change in IC50 (IC50 [Drug + Cobicistat]/IC50 [Drug]) (A-427): 1.3 fold | Fold change in IC50 (IC50 [Drug + Cobicistat]/IC50 [Drug]) (A-498): 4.2 fold | Fold change in IC50 (IC50 [Drug + Cobicistat]/IC50 [Drug]) (A-549): 1.1 fold | Fold change in IC50 (IC50 [Drug + Cobicistat]/IC50 [Drug]) (A-704): 2.3 fold | Fold change in IC50 (IC50 [Drug + Cobicistat]/IC50 [Drug]) (AN3 CA): 2.1 fold | Fold change in IC50 (IC50 [Drug + Cobicistat]/IC50 [Drug]) (AU-565): 3.2 fold | Fold change in IC50 (IC50 [Drug + Cobicistat]/IC50 [Drug]) (AsPC-1): 5.0 fold | Fold change in IC50 (IC50 [Drug + Cobicistat]/IC50 [Drug]) (BT-549): 1.4 fold | Fold change in IC50 (IC50 [Drug + Cobicistat]/IC50 [Drug]) (C-33 A): 1.5 fold | Fold change in IC50 (IC50 [Drug + Cobicistat]/IC50 [Drug]) (CAL 27): 1.4 fold | Fold change in IC50 (IC50 [Drug + Cobicistat]/IC50 [Drug]) (CCRF-CEM): 3.6 fold | Fold change in IC50 (IC50 [Drug + Cobicistat]/IC50 [Drug]) (DLD-1): 2.7 fold | Fold change in IC50 (IC50 [Drug + Cobicistat]/IC50 [Drug]) (Hs 578T): 1.9 fold | Fold change in IC50 (IC50 [Drug + Cobicistat]/IC50 [Drug]) (K-562): 3.2 fold | Fold change in IC50 (IC50 [Drug + Cobicistat]/IC50 [Drug]) (KU812): 5.6 fold | Fold change in IC50 (IC50 [Drug + Cobicistat]/IC50 [Drug]) (LNCaP FGC): 3.8 fold | Fold change in IC50 (IC50 [Drug + Cobicistat]/IC50 [Drug]) (LoVo): 2.0 fold | Fold change in IC50 (IC50 [Drug + Cobicistat]/IC50 [Drug]) (MIA PaCa-2): 4.2 fold | Fold change in IC50 (IC50 [Drug + Cobicistat]/IC50 [Drug]) (MeWo): 2.3 fold | Fold change in IC50 (IC50 [Drug + Cobicistat]/IC50 [Drug]) (NCI-H82): 2.2 fold | Fold change in IC50 (IC50 [Drug + Cobicistat]/IC50 [Drug]) (OVCAR-3): 2.2 fold | Fold change in IC50 (IC50 [Drug + Cobicistat]/IC50 [Drug]) (PA-1): 5.2 fold | Fold change in IC50 (IC50 [Drug + Cobicistat]/IC50 [Drug]) (RPMI-7951): 3.3 fold | Fold change in IC50 (IC50 [Drug + Cobicistat]/IC50 [Drug]) (RT4): 4.4 fold | Fold change in IC50 (IC50 [Drug + Cobicistat]/IC50 [Drug]) (SHP-77): 3.5 fold | Fold change in IC50 (IC50 [Drug + Cobicistat]/IC50 [Drug]) (SK-N-FI): 5.1 fold | Fold change in IC50 (IC50 [Drug + Cobicistat]/IC50 [Drug]) (T98G): 7.7 fold | Fold change in IC50 (IC50 [Drug + Cobicistat]/IC50 [Drug]) (U-2 OS): 4.3 fold | Fold change in IC50 (IC50 [Drug + Cobicistat]/IC50 [Drug]) (U-87 MG): 2.0 fold
